Data: paper PMC4974627 (Biochemistry, 2016)

Experiments:
[1] = molecular target: T1, AtGSNOR (Arabidopsis GSNOR) (Arabidopsis thaliana, UniProt Q96533); assay: time-dependent loss of activity on GSNO incubation; format: biochemical; details: covalent (presumed S-nitrosation); 1 mM GSNO, 20 µM protein
[2] = molecular target: T1, AtGSNOR (Arabidopsis GSNOR); assay: residual GSNO reductase activity after CysNO incubation; format: biochemical; details: covalent (S-nitrosation of Cys10, Cys271, Cys370), reversible by DTT; one hour
[3] = molecular target: ScSFA1 (yeast GSNOR, Sensitive to Formaldehyde 1) (Saccharomyces cerevisiae, UniProt P32771, C12A); assay: residual activity after CysNO versus CysSH treatment; format: biochemical; details: covalent (S-nitrosation); 2 mM CysNO
[4] = molecular target: AtGSNOR (Arabidopsis GSNOR) (Arabidopsis thaliana, UniProt Q96533, C271A); assay: intact protein mass spectrometry; format: binding; details: covalent (S-nitrosation)
[5] = molecular target: AtGSNOR (Arabidopsis GSNOR) (Arabidopsis thaliana, UniProt Q96533, C370A); assay: intact protein mass spectrometry; format: binding; details: covalent (S-nitrosation)
Chain of AtGSNOR (Arabidopsis GSNOR) (Arabidopsis thaliana, UniProt Q96533, C370A) (Q96533 2-379 C370A): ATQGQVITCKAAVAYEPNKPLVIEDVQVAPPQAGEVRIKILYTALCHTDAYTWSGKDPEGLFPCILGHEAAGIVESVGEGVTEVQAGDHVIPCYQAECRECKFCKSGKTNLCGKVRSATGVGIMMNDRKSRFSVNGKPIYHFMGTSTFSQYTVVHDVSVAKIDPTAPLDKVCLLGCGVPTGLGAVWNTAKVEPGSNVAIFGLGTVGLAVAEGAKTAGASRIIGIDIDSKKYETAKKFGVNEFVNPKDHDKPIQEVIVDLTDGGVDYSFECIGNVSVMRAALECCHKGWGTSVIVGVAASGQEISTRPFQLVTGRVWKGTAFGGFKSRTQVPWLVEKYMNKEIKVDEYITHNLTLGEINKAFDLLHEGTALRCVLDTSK

T1 sequence (Q96533 2-379): as the sequence (Q96533 2-379 C370A) above, with A369C counted along it
Chain of ScSFA1 (yeast GSNOR, Sensitive to Formaldehyde 1) (P32771 whole entry C12A): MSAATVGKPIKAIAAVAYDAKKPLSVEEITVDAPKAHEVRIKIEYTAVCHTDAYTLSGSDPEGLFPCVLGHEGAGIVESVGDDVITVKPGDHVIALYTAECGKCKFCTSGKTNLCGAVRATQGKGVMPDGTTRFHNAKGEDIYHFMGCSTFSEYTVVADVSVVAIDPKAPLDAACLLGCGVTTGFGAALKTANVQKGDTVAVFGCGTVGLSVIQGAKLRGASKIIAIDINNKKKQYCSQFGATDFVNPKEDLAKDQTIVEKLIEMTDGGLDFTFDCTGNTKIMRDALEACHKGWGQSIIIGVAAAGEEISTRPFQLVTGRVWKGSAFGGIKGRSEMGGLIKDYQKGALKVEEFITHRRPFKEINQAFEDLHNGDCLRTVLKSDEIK
Chain of AtGSNOR (Arabidopsis GSNOR) (Arabidopsis thaliana, UniProt Q96533, C271A) (Q96533 2-379 C271A): as the sequence (Q96533 2-379 C370A) above, with C270A, A369C counted along it

Structure (SMILES) | time-dependent loss of activity on GSNO incubation [1] | % decrease in activity at 125 μM [2] | residual activity after CysNO versus CysSH treatment [3] | intact protein mass spectrometry (+29 Da adducts) [4] | intact protein mass spectrometry (+29 Da adducts) [5]
N[C@@H](CCC(=O)N[C@@H](CSN=O)C(=O)NCC(=O)O)C(=O)O [GSNO] | Incubation with GSNO caused a time-dependent decrease in the specific activity of unmodified AtGSNOR |  |  |  | 
N[C@@H](CSN=O)C(=O)O [CysNO] |  | ~ 40% | ScSFA1^C12A and HsGSNOR^C8A were as sensitive to nitrosation as their corresponding wild-types | only two adducts were observed for single cysteine mutants (Fig. 2F, H, J) | only two adducts were observed for single cysteine mutants (Fig. 2F, H, J)
